According to ChEMBL document CHEMBL1201862, “PubChem BioAssay data set” (2004):
Calls of active or inactive are those of the source.

Assays:
[1] = test system: Vero; experiment: Vero cell viability after compound exposure – synthesized analogs, set II, cytotoxicity control for West Nile virus antiviral project, SAR follow-up (AID 2402); type: functional; conditions: Chlorocebus sabaeus
[2] = A Cell Based Assay for the Identification of Probe candidate Compounds with Anti- Venezuelan Equine Encephalitis virus. [Related pubchem assays: 2409, 2419, 1621, 2238, 2405, 2024, 2065, 2402, 2414, 1635, 1650, 2244 ]; type: functional
[3] = test system: Vero; experiment: antiviral protection of cells from WNV – synthesized analogs, SAR follow-up (AID 2238); type: functional, cell-based; conditions: Chlorocebus sabaeus
[4] = test system: Vero; experiment: host cell viability loss, Vero E6 – synthesized analogs, cytotoxicity control for West Nile virus antiviral project, SAR follow-up (AID 2244); type: functional; conditions: Chlorocebus sabaeus
[5] = test system: Vero; experiment: Vero 76 cell viability after compound exposure – Vero 76 cells, synthesized analogs, cytotoxicity control for West Nile virus antiviral project, SAR follow-up (AID 2414); type: functional; conditions: Chlorocebus sabaeus
[6] = molecular target: G-protein coupled receptor 55 (Homo sapiens, UniProt Q9Y2T6); experiment: selective activators of receptor GPR55 – imaging, U2OS cells, beta-arrestin-GFP redistribution, primary screen (AID 1961); type: functional
[7] = viability loss of HPDE-C7K cells – cell-based, fluorescence, HTS, primary screen (AID 431); type: functional; conditions: Homo sapiens
[8] = HPDE-C7 pancreatic duct cell viability loss – fluorescence, HTS (AID 430); type: functional, cell-based; conditions: Homo sapiens
[9] = molecular target: Ephrin type-A receptor 4 (Mus musculus, UniProt Q03137); experiment: EphA4 ligand-binding antagonists – biochemical, colorimetric, mouse EphA4, primary screen (AID 689); type: functional
[10] = molecular target: Induced myeloid leukemia cell differentiation protein Mcl-1 (Homo sapiens, UniProt Q07820); type: functional
[11] = molecular target: T1, Tyrosine-protein phosphatase non-receptor type 7 (Homo sapiens, UniProt P35236); experiment: redox-active compounds inhibiting HePTP phosphatase – biochemical, fluorescence, mechanism study (AID 2068); type: functional
T1 sequence (P35236 whole entry): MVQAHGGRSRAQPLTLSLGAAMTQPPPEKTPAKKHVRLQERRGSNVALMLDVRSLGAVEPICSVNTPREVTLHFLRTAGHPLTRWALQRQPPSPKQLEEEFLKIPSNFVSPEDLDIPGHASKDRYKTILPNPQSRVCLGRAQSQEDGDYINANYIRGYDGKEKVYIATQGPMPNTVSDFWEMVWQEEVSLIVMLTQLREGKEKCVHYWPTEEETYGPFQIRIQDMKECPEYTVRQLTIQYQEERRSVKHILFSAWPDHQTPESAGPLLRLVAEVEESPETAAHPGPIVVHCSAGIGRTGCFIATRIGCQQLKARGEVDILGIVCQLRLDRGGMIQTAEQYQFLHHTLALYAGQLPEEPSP

[12] = molecular target: Eukaryotic translation initiation factor 4H (Homo sapiens, UniProt Q15056); experiment: inhibitors of translation initiation factor eIF4H – SAR follow-up (AID 435011); type: functional
[13] = molecular target: Polyadenylate-binding protein 1 (Homo sapiens, UniProt P11940); experiment: PABP inhibition in translation initiation, SAR follow-up (AID 435018); type: functional
[14] = molecular target: T2, Dual specificity protein phosphatase 3 (Homo sapiens, UniProt P51452); experiment: Dose Response Confirmation of compounds that inhibit VHR1 in Fluorescent Assay. [Related pubchem assays (depositor defined):AID1661, AID1878]; type: functional
[15] = molecular target: T1, Tyrosine-protein phosphatase non-receptor type 7; experiment: Dose Response confirmation of compounds that inhibit HePTP. [Related pubchem assays (depositor defined):AID1059, AID1661, AID2085]; type: functional
[16] = molecular target: T3, Type-1 angiotensin II receptor (Homo sapiens, UniProt P30556); experiment: agonist activity at AGTR1 – cell-based, uHTS hits, selectivity assay for APJ receptor agonist project, dose response (AID 488865); type: functional;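 also: beta-arrestin recruitment to AT1 measured by enzyme fragment complementation luminescence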
T3 sequence (P30556 whole entry): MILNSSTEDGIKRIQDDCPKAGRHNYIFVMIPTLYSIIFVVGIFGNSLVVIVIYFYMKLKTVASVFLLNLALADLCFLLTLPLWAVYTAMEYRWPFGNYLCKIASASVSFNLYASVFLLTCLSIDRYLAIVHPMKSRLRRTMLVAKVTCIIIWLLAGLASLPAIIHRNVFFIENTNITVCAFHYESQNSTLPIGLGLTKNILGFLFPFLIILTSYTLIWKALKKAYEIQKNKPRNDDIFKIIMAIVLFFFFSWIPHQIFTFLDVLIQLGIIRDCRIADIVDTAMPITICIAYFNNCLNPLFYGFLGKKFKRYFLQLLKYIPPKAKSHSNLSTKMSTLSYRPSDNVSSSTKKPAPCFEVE

[17] = molecular target: 5-hydroxytryptamine receptor 2A (Mus musculus, UniProt P35363); type: functional, cell-based;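 also: CHO-K1 cells with tagged receptor and beta-arrestin; agonist potency measured as compound-induced activation of the receptor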
[18] = molecular target: Phosphomannomutase 2 (Homo sapiens, UniProt O15305); experiment: Counter screen SAR assay for PMM2 inhibitors via a fluorescence intensity assay. [Related pubchem assays (depositor defined):AID1545, AID1574]
[19] = molecular target: Glucose-6-phosphate 1-dehydrogenase (Homo sapiens, UniProt P11413); experiment: inhibition of Homo sapiens G6PD, dose series – biochemical, fluorescence, selectivity assay for P. falciparum G6PD inhibitor project, dose response (AID 504792); type: functional
[20] = viability loss in HeLa cells – cytotoxicity control for MgcRacGAP inhibitor project, dose response (AID 624300); type: functional
[21] = molecular target: T4, Hexokinase (Trypanosoma brucei, UniProt Q38C41); experiment: Confirmation assay for inhibitors of Trypanosoma brucei hexokinase 1-Analogue-first series. [Related pubchem assays (depositor defined):AID1430, AID1632, AID2516, AID2560, AID2579, AID2600, AID449725, AID492951]; type: functional
T4 sequence (Q38C41 whole entry): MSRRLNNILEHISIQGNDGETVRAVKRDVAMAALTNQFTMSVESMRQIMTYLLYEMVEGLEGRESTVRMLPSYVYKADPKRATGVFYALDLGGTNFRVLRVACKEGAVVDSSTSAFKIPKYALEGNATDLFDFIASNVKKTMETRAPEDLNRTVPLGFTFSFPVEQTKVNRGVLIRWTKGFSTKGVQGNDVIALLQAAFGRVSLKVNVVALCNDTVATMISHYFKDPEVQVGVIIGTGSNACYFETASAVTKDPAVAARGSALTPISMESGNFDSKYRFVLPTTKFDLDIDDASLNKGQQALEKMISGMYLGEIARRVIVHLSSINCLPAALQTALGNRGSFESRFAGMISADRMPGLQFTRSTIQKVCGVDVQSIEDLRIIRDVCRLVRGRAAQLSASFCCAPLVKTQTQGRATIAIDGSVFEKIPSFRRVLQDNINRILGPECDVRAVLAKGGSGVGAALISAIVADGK

[22] = molecular target: Phosphoethanolamine/phosphocholine phosphatase (Homo sapiens, UniProt Q8TCT1); experiment: SAR assay for compounds that inhibit PHOSPHO1. [Related pubchem assays (depositor defined):AID1545, AID1565, AID1574]
[23] = molecular target: T5, Mannose-6-phosphate isomerase (Homo sapiens, UniProt P34949); experiment: phosphomannose isomerase inhibition – biochemical, fluorescence intensity, confirmation (AID 1535)
T5 sequence (P34949 whole entry): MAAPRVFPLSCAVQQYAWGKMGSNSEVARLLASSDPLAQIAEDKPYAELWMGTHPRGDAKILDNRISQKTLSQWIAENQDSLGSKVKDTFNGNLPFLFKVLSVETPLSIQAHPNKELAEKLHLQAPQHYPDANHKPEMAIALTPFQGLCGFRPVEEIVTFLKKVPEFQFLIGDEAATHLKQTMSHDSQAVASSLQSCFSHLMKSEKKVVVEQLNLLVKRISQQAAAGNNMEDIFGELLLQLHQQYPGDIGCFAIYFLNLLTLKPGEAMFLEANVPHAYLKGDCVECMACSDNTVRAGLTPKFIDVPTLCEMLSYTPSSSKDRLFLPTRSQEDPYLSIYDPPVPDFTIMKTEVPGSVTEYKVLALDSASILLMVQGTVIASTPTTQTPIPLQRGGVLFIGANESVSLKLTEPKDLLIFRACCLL

[24] = molecular target: T6, Rac GTPase-activating protein 1 (Homo sapiens, UniProt Q9H0H5); experiment: blockers of MgcRacGAP-driven Rac1 GTP hydrolysis – biochemical, ADP Hunter fluorescence, primary and confirmatory, confirmation (AID 624330); type: functional
T6 sequence (Q9H0H5 whole entry): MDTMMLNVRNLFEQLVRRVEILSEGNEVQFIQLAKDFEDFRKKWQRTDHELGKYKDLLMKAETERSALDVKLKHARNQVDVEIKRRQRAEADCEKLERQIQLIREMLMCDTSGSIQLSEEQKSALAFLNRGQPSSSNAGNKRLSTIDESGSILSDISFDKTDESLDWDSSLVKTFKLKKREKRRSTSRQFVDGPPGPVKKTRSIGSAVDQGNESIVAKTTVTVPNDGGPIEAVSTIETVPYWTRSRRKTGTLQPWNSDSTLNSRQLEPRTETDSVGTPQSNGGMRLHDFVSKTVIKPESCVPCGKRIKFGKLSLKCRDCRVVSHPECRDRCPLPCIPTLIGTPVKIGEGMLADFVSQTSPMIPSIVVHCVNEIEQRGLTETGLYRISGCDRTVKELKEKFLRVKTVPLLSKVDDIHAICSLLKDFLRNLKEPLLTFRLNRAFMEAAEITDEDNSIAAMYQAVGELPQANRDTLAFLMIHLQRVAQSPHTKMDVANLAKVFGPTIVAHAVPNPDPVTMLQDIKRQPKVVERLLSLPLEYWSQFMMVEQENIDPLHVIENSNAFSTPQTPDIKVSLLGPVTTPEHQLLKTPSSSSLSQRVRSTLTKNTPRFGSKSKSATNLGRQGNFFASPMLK

[25] = molecular target: Mitochondrial peptide methionine sulfoxide reductase (Bos taurus, UniProt P54149); experiment: Absorbance-based biochemical high throughput dose response assay for activators of Methionine sulfoxide reductase A (MsrA).; type: functional
[26] = molecular target: T2, Dual specificity protein phosphatase 3; experiment: SAR VHR1 Fluorescent Assay for In Vitro dose response studies Set 2. [Related pubchem assays (depositor defined):AID1654, AID1661, AID1878]; type: functional
[27] = molecular target: T1, Tyrosine-protein phosphatase non-receptor type 7; experiment: SAR analysis of chemical inhibitors of HePTP using a Fluorescent assay - Set 2. [Related pubchem assays (depositor defined):AID1059, AID1077, AID1661, AID2085, AID521]; type: functional

T2 sequence (P51452 whole entry): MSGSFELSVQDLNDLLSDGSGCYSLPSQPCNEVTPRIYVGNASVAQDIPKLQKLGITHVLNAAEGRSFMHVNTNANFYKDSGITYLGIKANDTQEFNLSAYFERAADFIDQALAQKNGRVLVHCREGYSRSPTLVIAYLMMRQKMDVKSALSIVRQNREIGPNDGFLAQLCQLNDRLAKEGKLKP
Chain of Ephrin type-A receptor 4 (Q03137 whole entry): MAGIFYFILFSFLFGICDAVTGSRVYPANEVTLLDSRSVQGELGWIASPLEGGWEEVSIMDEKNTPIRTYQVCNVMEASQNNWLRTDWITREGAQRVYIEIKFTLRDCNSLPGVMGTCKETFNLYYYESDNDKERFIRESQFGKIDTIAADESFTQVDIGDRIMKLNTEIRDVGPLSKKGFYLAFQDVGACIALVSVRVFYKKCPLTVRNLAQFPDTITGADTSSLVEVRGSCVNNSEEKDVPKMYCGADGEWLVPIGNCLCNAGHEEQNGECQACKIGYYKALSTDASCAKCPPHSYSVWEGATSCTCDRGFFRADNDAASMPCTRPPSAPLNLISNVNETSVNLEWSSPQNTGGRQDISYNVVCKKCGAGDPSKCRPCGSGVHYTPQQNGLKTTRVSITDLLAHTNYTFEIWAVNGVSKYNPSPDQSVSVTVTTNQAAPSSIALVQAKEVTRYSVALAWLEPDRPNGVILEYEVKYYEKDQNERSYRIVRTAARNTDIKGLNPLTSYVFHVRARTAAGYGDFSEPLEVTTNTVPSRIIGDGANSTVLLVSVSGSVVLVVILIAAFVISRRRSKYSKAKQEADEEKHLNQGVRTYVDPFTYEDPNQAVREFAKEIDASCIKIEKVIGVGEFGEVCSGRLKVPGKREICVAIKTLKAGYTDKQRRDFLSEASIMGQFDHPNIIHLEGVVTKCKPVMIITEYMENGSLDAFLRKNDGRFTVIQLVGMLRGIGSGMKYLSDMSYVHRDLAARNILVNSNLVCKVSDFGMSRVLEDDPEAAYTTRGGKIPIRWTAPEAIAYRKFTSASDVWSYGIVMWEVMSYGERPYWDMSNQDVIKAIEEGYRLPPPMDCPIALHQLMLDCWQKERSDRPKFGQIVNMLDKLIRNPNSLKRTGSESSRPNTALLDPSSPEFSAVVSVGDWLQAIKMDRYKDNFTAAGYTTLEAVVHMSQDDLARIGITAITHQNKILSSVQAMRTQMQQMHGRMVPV
Chain of Phosphoethanolamine/phosphocholine phosphatase (Q8TCT1 whole entry): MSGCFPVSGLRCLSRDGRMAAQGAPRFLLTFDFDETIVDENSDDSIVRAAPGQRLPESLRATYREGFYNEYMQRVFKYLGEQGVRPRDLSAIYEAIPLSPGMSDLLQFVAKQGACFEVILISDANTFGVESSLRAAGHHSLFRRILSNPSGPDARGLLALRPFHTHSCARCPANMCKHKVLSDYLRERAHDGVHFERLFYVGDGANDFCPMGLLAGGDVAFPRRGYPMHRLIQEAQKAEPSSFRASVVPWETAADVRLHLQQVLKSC
Chain of 5-hydroxytryptamine receptor 2A (P35363 whole entry): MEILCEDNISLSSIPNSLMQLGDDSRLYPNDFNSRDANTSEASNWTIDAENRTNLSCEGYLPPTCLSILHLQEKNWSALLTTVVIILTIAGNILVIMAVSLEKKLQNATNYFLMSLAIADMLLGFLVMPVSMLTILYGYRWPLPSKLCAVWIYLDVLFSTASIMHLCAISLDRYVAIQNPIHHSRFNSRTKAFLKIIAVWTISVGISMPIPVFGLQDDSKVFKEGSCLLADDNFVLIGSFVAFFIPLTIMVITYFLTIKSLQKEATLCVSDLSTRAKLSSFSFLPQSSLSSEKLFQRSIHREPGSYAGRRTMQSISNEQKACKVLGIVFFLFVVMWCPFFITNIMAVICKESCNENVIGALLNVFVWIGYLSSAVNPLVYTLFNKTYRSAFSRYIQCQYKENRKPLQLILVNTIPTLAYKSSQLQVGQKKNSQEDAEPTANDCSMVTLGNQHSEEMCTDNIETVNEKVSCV
Chain of Glucose-6-phosphate 1-dehydrogenase (P11413 whole entry): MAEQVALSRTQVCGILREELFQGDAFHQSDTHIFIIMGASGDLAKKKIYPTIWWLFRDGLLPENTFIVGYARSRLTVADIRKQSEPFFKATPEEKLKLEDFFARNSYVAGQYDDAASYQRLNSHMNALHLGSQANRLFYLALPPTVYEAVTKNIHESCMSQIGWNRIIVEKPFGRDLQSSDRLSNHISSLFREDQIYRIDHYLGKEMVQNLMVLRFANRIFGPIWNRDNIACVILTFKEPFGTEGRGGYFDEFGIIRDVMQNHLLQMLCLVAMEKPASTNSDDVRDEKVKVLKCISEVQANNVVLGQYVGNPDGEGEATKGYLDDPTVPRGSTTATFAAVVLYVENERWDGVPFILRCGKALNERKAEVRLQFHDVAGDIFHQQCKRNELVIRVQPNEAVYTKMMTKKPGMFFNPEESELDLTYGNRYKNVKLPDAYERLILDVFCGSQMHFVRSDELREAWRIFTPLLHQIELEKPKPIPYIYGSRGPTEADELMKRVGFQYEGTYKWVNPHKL
Chain of Induced myeloid leukemia cell differentiation protein Mcl-1 (Q07820 whole entry): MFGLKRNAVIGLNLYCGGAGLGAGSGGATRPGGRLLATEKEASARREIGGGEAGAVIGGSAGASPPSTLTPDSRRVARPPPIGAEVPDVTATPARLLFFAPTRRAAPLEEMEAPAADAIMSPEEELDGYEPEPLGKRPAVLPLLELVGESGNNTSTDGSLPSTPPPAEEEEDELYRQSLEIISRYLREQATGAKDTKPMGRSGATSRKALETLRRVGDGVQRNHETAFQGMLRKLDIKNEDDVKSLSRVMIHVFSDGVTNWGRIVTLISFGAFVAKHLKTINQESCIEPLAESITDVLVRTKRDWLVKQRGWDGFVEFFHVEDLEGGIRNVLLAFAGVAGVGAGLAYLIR
Chain of Mitochondrial peptide methionine sulfoxide reductase (P54149 whole entry): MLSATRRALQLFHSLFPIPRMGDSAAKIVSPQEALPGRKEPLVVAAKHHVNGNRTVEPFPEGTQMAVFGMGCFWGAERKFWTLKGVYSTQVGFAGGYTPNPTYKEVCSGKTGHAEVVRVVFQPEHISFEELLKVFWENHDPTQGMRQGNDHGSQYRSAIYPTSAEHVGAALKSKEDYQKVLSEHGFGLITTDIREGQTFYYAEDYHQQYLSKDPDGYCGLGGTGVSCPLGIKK
Chain of Phosphomannomutase 2 (O15305 whole entry): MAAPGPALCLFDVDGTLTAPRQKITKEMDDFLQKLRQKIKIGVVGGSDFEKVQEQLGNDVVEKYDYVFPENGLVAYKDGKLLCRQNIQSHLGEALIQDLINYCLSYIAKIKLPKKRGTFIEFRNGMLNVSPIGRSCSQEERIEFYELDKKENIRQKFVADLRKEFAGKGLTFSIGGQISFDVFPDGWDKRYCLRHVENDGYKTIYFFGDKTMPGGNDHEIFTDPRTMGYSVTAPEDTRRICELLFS
Chain of Polyadenylate-binding protein 1 (P11940 whole entry): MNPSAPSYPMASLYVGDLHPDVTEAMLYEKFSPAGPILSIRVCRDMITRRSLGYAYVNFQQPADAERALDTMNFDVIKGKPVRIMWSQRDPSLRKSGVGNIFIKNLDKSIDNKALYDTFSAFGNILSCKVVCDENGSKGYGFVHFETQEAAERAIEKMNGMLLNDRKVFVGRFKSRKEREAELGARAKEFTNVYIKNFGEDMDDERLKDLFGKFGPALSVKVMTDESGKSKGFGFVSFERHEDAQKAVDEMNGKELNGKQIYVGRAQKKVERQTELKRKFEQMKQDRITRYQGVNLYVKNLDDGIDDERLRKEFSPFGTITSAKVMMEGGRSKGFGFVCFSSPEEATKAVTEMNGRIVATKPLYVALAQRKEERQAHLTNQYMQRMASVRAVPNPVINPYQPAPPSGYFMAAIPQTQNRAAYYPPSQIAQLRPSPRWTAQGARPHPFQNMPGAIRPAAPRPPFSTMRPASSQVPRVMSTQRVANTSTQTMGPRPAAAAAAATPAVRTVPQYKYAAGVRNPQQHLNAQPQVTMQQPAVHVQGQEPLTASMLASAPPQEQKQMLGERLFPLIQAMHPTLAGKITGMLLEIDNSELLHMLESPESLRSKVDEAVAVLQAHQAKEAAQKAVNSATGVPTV
Chain of G-protein coupled receptor 55 (Q9Y2T6 whole entry): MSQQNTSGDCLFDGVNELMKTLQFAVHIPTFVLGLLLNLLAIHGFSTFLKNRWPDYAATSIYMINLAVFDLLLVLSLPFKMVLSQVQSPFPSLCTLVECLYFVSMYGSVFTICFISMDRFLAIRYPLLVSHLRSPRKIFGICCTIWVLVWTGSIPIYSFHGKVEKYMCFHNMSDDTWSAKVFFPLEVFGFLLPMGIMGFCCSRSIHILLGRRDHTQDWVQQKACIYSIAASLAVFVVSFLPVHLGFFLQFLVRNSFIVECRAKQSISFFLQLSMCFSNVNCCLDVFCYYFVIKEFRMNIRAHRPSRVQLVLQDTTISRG

With `O=C(CSc1nc2ccccc2c(=O)n1-c1ccc(Cl)cc1)Nc1ccc2c(c1)CCC2` the CC50 [1] was > 100 µM (active), the IC50 [2] was 7.56 µM (active) and the IC50 [3] was > 40 µM (active). For the same molecule, the CC50 [4] was > 40 µM (active) and the CC50 [5] was > 66.6 µM (active).

For `CC/C(Nc1ccc(OC)cc1OC)=C1/C(=O)NC(=O)N(C2CCCCC2)C1=O`, the EC50 [6] was 10.9 µM (inactive), the EC50 [7] was 16.3 µM (active) and the EC50 [8] was 12.8 µM (active).

For `O=S(=O)(c1ccc2nc(-c3ccco3)c(-c3ccco3)nc2c1)N1CCOCC1`, the IC50 [9] was 21.5 µM (active), the IC50 [10] was 5.65 µM (active) and the IC50 [11] was 7.46 µM (active).

In the case of `COc1ccc([N+](=O)[O-])cc1NC(=O)C(C)OC(=O)c1ccccc1C(=O)c1ccc(Cl)cc1` (configuration not stated), the IC50 [12] was > 100 µM (inactive) and the IC50 [13] was > 100 µM (inactive).

With `Cn1c2ccccc2c(=O)c2ccc(C#Cc3ccccn3)cc21` the IC50 [14] was 7.2 µM (active) and the IC50 [15] was 6.64 µM (active).

For `COC(=O)C1=C(Cn2cnc3ccccc32)NC(=O)NC1c1cc(C)ccc1C` (configuration not stated), the EC50 [16] was > 100 µM (inactive) and the EC50 [17] was 8.44 µM (active).

With `O=c1c2ccccc2sn1-c1cccc(Cl)c1` the IC50 [18] was 59.6 µM (active), the IC50 [19] was 13 µM (active) and the CC50 [20] was 100 µM (active). The IC50 [21] was 1.9 µM (active), the IC50 [22] was 5.21 µM (inactive) and the IC50 [23] was 3.43 µM (active). The IC50 [24] was 33.9 µM (active) and the EC50 [25] was > 104 µM (inactive).

With `O=S(=O)(Nc1ncccn1)c1ccc(NC(=S)N2CCN(Cc3ccc4c(c3)OCO4)CC2)cc1` the IC50 [26] was > 100 µM (inactive) and the IC50 [27] was > 100 µM (inactive).
